Melting point data for two compounds are collected here from patent US20030187044A1, “Medicament” (SmithKline Beecham p.l.c., priority 1990, published 2003).

By melting point is commonly meant the temperature, or range, at which the solid turns liquid. With `CCCSc1ncc(C[C@H](NC(=O)CCC)C(=O)O)n1Cc1ccccc1Cl` [Example 1, 3-[(2-Chlorophenyl)methyl]-2-propylthio-N -butyrylhistidine], the melting point fell in the range of 178 to 181 °C. On to `CCCCc1nc2cc(Br)cc(C(=O)O)c2n1Cc1ccccc1Cl` [Example 4, 5-Bromo-2-n-butyl-1-(2-chlorophenyl)methyl-1H -benzimidazole-7-carboxylic Acid], for which the melting point was 254 to 255 °C.
